Measurements reported in PubChem BioAssay (NCI).
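Assay format: 96-well plates, 48-hour exposure. At the GI50, growth is halved. At the TGI there is no net growth.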

Legend:
Test in all cases: NCI tumour cell line growth inhibition, 48 h
[1] = test system: 786-0 renal
[2] = test system: A498 renal
[3] = test system: A549 NSCLC
[4] = test system: ACHN renal
[5] = test system: BT-549 breast
[6] = test system: CAKI-1 renal
[7] = test system: CCRF-CEM leukemia
[8] = test system: COLO 205 colon
[9] = test system: DU-145 prostate
[10] = test system: EKVX NSCLC
[11] = test system: HCC-2998 colon
[12] = test system: HCT-116 colon
[13] = test system: HCT-15 colon
[14] = test system: HL-60(TB) leukemia
[15] = test system: HOP-62 NSCLC
[16] = test system: HOP-92 NSCLC
[17] = test system: HS 578T breast
[18] = test system: HT29 colon
[19] = test system: IGROV1 ovarian
[20] = test system: K-562 leukemia
[21] = test system: KM12 colon
[22] = test system: LOX IMVI melanoma
[23] = test system: M14 melanoma
[24] = test system: MALME-3M melanoma
[25] = test system: MCF7 breast
[26] = test system: MDA-MB-231 breast
[27] = test system: MDA-MB-435
[28] = test system: MOLT-4 leukemia
[29] = test system: NCI-H226 lung

Compound: CC(=O)O[C@@H]1C(=O)N(c2cnccn2)[C@H]1c1ccccc1[N+](=O)[O-]
- GI50 [1]: 551 nM
- TGI [1]: 13.4 µM
- GI50 [2]: > 100 µM
- TGI [2]: > 100 µM
- GI50 [3]: 410 nM
- TGI [3]: > 100 µM
- GI50 [4]: 596 nM
- TGI [4]: 17.4 µM
- GI50 [5]: 295 nM
- TGI [5]: 1240 nM
- GI50 [6]: 487 nM
- TGI [6]: 13.3 µM
- GI50 [7]: 435 nM
- TGI [7]: > 100 µM
- GI50 [8]: 3.02 µM
- TGI [8]: 11.8 µM
- GI50 [9]: 512 nM
- TGI [9]: > 100 µM
- GI50 [10]: 518 nM
- TGI [10]: > 100 µM
- GI50 [11]: 2100 nM
- TGI [11]: 10.5 µM
- GI50 [12]: 330 nM
- TGI [12]: 6.77 µM
- GI50 [13]: 421 nM
- TGI [13]: 14.5 µM
- GI50 [14]: 288 nM
- GI50 [15]: 1140 nM
- TGI [15]: 18.3 µM
- GI50 [16]: 356 nM
- TGI [16]: 10.9 µM
- GI50 [17]: 920 nM
- TGI [17]: > 100 µM
- GI50 [18]: 2540 nM
- TGI [18]: 6.61 µM
- GI50 [19]: 529 nM
- TGI [19]: 19 µM
- GI50 [20]: 341 nM
- TGI [20]: > 100 µM
- GI50 [21]: 362 nM
- TGI [21]: 19.4 µM
- GI50 [22]: 283 nM
- TGI [22]: 1690 nM
- GI50 [23]: 323 nM
- TGI [23]: 5.98 µM
- GI50 [24]: 526 nM
- TGI [24]: 40.9 µM
- GI50 [25]: 352 nM
- TGI [25]: > 64.2 µM
- GI50 [26]: 351 nM
- TGI [26]: 4.85 µM
- GI50 [27]: 205 nM
- TGI [27]: 456 nM
- GI50 [28]: 452 nM
- TGI [28]: > 100 µM
- GI50 [29]: 527 nM
